This note sets out measurements from ChEMBL document CHEMBL1800002, “Indazole derivatives as novel bradykinin B1 receptor antagonists” (Bioorg Med Chem Lett, 2010).

For orientation: Ki means a measure of affinity in units of concentration, obtained from inhibition or displacement. For orientation: Papp means a coefficient for how fast a substance crosses the barrier. What is called bioavailability is the share of a dose that reaches the circulation, judged against a reference dose that is usually intravenous. Lower therefore signals poor availability. By half-life is commonly meant how long it takes for the measured level to halve. A lower half-life goes with rapid decline.

Structures are written as SMILES. A value given as a limit tells only on which side of the number the result lay.

One data set has as its target Cannabinoid receptor 2 (Homo sapiens, UniProt P34972). Briefly: Displacement of radioligand from human CB2 receptor expressed in CHO cells. Type of data set: cell-based.
The nature of data set [1]: Clearance in Sprague-Dawley rat at 10 mg/kg, po or 2 mg/kg, iv. It is filed as ADME, organism-based. The following applies: in vivo.
Data set [2] deals with ATP-dependent translocase ABCB1 (Homo sapiens, UniProt P08183). The experiment in a line: Drug transport assessed as MDR1 -mediated transcellular transport ratio by P-gp transport assay. It is filed as ADME.
Chain of ATP-dependent translocase ABCB1 (P08183 whole entry): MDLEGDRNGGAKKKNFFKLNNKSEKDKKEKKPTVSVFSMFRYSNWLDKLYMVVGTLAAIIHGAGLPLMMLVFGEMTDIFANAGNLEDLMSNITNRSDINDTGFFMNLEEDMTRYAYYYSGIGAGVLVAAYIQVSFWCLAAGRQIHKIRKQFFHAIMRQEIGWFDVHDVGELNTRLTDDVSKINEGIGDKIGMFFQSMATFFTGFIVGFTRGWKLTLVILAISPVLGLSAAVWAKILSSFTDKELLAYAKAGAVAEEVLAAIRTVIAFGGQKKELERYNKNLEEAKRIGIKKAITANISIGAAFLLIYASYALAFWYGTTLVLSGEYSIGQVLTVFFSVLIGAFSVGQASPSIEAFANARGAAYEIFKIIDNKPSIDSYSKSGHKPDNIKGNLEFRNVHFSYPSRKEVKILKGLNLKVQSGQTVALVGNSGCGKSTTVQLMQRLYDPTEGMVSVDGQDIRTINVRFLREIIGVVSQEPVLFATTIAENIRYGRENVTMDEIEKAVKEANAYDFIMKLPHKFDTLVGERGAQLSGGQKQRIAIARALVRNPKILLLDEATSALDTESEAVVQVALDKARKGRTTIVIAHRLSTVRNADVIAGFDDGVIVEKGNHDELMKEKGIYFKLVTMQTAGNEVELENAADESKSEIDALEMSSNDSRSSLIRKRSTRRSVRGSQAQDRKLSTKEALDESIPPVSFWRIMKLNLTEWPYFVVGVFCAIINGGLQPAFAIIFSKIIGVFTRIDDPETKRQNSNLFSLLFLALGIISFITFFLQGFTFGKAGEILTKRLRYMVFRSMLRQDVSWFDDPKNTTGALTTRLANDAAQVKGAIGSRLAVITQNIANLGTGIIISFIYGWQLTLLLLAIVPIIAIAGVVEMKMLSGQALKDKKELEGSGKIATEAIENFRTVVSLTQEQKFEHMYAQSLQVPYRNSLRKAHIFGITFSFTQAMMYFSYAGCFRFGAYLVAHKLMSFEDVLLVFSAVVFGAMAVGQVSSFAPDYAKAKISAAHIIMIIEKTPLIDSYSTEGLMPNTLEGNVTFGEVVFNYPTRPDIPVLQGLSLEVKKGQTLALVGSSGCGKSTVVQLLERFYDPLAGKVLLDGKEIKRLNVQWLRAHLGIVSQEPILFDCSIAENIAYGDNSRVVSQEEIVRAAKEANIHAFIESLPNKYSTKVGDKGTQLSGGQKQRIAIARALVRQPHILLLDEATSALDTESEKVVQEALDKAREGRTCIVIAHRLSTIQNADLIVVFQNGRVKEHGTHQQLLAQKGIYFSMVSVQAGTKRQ
Data set [3] in a line: Apparent passive permeability coefficient by cell based assay. Type of data set: ADME.
Data set [4] can be described thus: Oral bioavailability in Sprague-Dawley rat at 10 mg/kg. Type of data set: ADME, organism-based. The following applies: in vivo.
Data set [5] can be described thus: Clearance in Mongrel dog at 3 mg/kg, po or 1 mg/kg, iv. It is filed as ADME, organism-based, Canis lupus familiaris. The following applies: in vivo.
Data set [6] is described as follows: Half life in Sprague-Dawley rat at 10 mg/kg, po or 2 mg/kg, iv. It is filed as ADME, organism-based. The note with it: in vivo.
Data set [7] in a line: Half life in Mongrel dog at 3 mg/kg, po or 1 mg/kg, iv. Type of data set: ADME, organism-based, Canis lupus familiaris. The note with it: in vivo.
The subject of another data set is Liver microsomes. Briefly: Stability in human liver microsomes. It is filed as ADME, Microsome. In general terms: Liver microsomes are vesicles of endoplasmic reticulum, rich in cytochrome P450 enzymes.

Chain of Cannabinoid receptor 2 (P34972 whole entry): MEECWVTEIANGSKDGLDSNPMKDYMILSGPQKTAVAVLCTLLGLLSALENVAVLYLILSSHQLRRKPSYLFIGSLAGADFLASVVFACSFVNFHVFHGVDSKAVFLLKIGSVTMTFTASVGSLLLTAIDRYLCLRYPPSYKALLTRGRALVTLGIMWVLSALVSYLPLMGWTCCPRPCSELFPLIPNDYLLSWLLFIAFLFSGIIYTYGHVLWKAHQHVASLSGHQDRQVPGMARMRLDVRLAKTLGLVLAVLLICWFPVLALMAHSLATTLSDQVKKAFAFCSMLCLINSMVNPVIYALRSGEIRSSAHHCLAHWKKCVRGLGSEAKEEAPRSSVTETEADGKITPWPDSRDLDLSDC

Molecule `COc1cc(C(=O)NC2(C(=O)N[C@H](C)c3ccc(-n4nc(C)c5ccccc54)cc3F)CC2)on1` yielded an inhibitory constant (Ki) at Cannabinoid receptor 2 of over 10 µM.
On to `CCc1nn(-c2ccc([C@@H](C)NC(=O)C3(NC(=O)c4cc(OC)no4)CC3)c(F)c2)c2ccccc12`, for which, on Cannabinoid receptor 2, the inhibitory constant (Ki) is over 10 µM.
At Cannabinoid receptor 2, `COc1cc(C(=O)NC2(C(=O)N[C@H](C)c3ccc(-n4nc(C5CC5)c5ccccc54)cc3F)CC2)on1` came in with a Ki of over 10 µM.
On to `COc1cc(C(=O)NC2(C(=O)N[C@H](C)c3ccc(-n4nc(-c5ccccc5)c5ccccc54)cc3F)CC2)on1`, for which, on Cannabinoid receptor 2, the inhibition constant Ki is over 10 µM.
Consider `COc1cc(C(=O)NC2(C(=O)N[C@H](C)c3ccc(-n4nc(Br)c5ccccc54)cc3F)CC2)on1`, for which, on Cannabinoid receptor 2, the inhibitory constant (Ki) was over 10 µM.
`COc1cc(C(=O)NC2(C(=O)N[C@H](C)c3ccc(-n4[nH]c(=O)c5ccccc54)cc3F)CC2)on1`: the Ki on Cannabinoid receptor 2 is over 10 µM.
On the same count and under the same terms, next, `COc1cc(C(=O)NC2(C(=O)N[C@H](C)c3ccc(-n4nc(OC)c5ccccc54)cc3F)CC2)on1`: over 10 µM.
`COc1cc(C(=O)NC2(C(=O)N[C@H](C)c3ccc(-n4nc(C#N)c5ccccc54)cc3F)CC2)on1` had a Ki at Cannabinoid receptor 2 of over 10 µM.
As to `COc1cc(C(=O)NC2(C(=O)N[C@H](C)c3ccc(-n4nc(Cl)c5ccccc54)cc3F)CC2)on1`, the results for the clearance in data set [1] and in data set [5] were 5.3 mL/min/kg and 1.3 mL/min/kg, respectively. The Ki at Cannabinoid receptor 2 was over 10 µM. In data set [2], the Ratio was found to be 1.6. In addition, the Papp in data set [3] turned out to be 26 ×10⁻⁶ cm/s. In data set [4], the bioavailability was found to be 49%. The figures for the half-life in data set [6] and in data set [7] were 3.1 h and 20.8 h, respectively.
Regarding `C[C@@H](NC(=O)C1(NC(=O)c2cncs2)CC1)c1ccc(-n2nc(Cl)c3ccccc32)cc1F`, the Ratio in [2] was 2.8. Besides, the apparent permeability coefficient (Papp) in data set [3] was determined as 19 ×10⁻⁶ cm/s. This molecule also yielded a clearance in [5] of 1.1 mL/min/kg. In addition, the half-life in data set [7] was 4.3 h.
As to `COc1ncc(C(=O)NC2(C(=O)N[C@H](C)c3ccc(-n4nc(Cl)c5ccccc54)cc3F)CC2)s1`, the clearance in data set [1] stood at 12.7 mL/min/kg; in data set [5], 1.7 mL/min/kg. Further, in [2], the Ratio came to 1.8. Moreover, the apparent permeability coefficient (Papp) in data set [3] came out at 14 ×10⁻⁶ cm/s. The molecule further registered a bioavailability in [4] of 13%. Also, the half-life in [6] and in data set [7] was 8.3 h in each case.
On Cannabinoid receptor 2, `COc1cc(C(=O)NC2(C(=O)N[C@H](C)c3ccc(-n4ncc5ccccc54)cc3F)CC2)on1` gave a Ki of over 10 µM.
On to `Cc1ncsc1C(=O)NC1(C(=O)N[C@H](C)c2ccc(-n3nc(Cl)c4ccccc43)cc2F)CC1`, for which the Stability entry with Liver microsomes is on record as “Unstable”.
Turning to `Cc1nnsc1C(=O)NC1(C(=O)N[C@H](C)c2ccc(-n3nc(Cl)c4ccccc43)cc2F)CC1`, in data set [2], the Ratio turned out to be 2.3. The apparent permeability (Papp) in data set [3] stood at 21 ×10⁻⁶ cm/s. The same molecule returned a clearance in data set [5] of 9.6 mL/min/kg. Moreover, the half-life in data set [7] was 2.4 h.
With `C[C@@H](NC(=O)C1(NC(=O)c2cn[nH]c2)CC1)c1ccc(-n2nc(Cl)c3ccccc32)cc1F`, in data set [2], the Ratio was determined as 55.6. The Papp in [3] is 19 ×10⁻⁶ cm/s. Besides, in the data set on Liver microsomes, the Stability entry is “Stable”.
Regarding `C[C@@H](NC(=O)C1(NC(=O)c2ccc(Br)nc2)CC1)c1ccc(-n2nc(Cl)c3ccccc32)cc1F`, the Ratio in [2] is recorded as 2.2. Also, the Papp in data set [3] amounted to 8.2 ×10⁻⁶ cm/s. In data set [5], this molecule returned a clearance of 2.6 mL/min/kg. In [7], this molecule gave a half-life of 7.1 h.
Taken in the same sequence, the figures for `Cc1cncc(C(=O)NC2(C(=O)N[C@H](C)c3ccc(-n4nc(Cl)c5ccccc54)cc3F)CC2)c1` were 1.9, 22 ×10⁻⁶ cm/s, 4.3 mL/min/kg and 2.6 h.
As to `C[C@@H](NC(=O)C1(NC(=O)c2cncc(O)c2)CC1)c1ccc(-n2nc(Cl)c3ccccc32)cc1F`, the Ratio in data set [2] stood at 89. Also, the Papp in data set [3] stood at 18 ×10⁻⁶ cm/s.
As for `COc1cncc(C(=O)NC2(C(=O)N[C@H](C)c3ccc(-n4nc(Cl)c5ccccc54)cc3F)CC2)c1`, the clearance in data set [1] turned out to be 7.8 mL/min/kg; in data set [5] it was 5.5 mL/min/kg. The Ratio in data set [2] stood at 5.3. Besides, the Papp in data set [3] was 21 ×10⁻⁶ cm/s. The bioavailability in [4] was 6%. Moreover, the values for the half-life in data set [6] and in data set [7] were 0.7 h and 2.3 h, respectively.
As to `C[C@@H](NC(=O)C1(NC(=O)c2cncc(F)c2)CC1)c1ccc(-n2nc(Cl)c3ccccc32)cc1F`, the Ratio in data set [2] was found to be 7.5. For the same molecule, in [3], the apparent permeability coefficient (Papp) stood at 24 ×10⁻⁶ cm/s.
As to `C[C@@H](NC(=O)C1(NC(=O)c2cncc(Cl)c2)CC1)c1ccc(-n2nc(Cl)c3ccccc32)cc1F`, in data set [2], the Ratio is 2.5. For the same molecule, in data set [3], the Papp was determined as 15 ×10⁻⁶ cm/s. In data set [5], the clearance turned out to be 3.1 mL/min/kg. Moreover, the half-life in [7] was 6 h.
Regarding `C[C@@H](NC(=O)C1(NC(=O)c2cncc(Br)c2)CC1)c1ccc(-n2nc(Cl)c3ccccc32)cc1F`, the clearance was determined as 2.5 mL/min/kg in data set [1] and 3.8 mL/min/kg in data set [5]. In [2], the Ratio amounted to 2.3. In [3], the Papp was found to be 13 ×10⁻⁶ cm/s. Also, the bioavailability in data set [4] turned out to be 24%. Further, the values for the half-life in data set [6] and in data set [7] were 3.1 h and 7.6 h, respectively.
Turning to `C[C@@H](NC(=O)C1(NC(=O)c2ccnnc2)CC1)c1ccc(-n2nc(Cl)c3ccccc32)cc1F`, the Ratio in data set [2] was determined as 29.4. In addition, in data set [3], the apparent permeability coefficient (Papp) turned out to be 25 ×10⁻⁶ cm/s.
Taken in the same sequence, the figures for `C[C@@H](NC(=O)C1(NC(=O)c2cncnc2)CC1)c1ccc(-n2nc(Cl)c3ccccc32)cc1F` were 5.9 and 24 ×10⁻⁶ cm/s.
Taken in the same sequence, the figures for `C[C@@H](NC(=O)C1(NC(=O)c2cnccn2)CC1)c1ccc(-n2nc(Cl)c3ccccc32)cc1F` were 1.6 and 30 ×10⁻⁶ cm/s.
For `C[C@@H](NC(=O)C1(NC(=O)c2cncc(Cl)n2)CC1)c1ccc(-n2nc(Cl)c3ccccc32)cc1F`, the values for the clearance in data set [1] and in data set [5] were 105 mL/min/kg and 10.5 mL/min/kg, respectively. The Ratio in [2] was determined as 1.8. In addition, the Papp in data set [3] is 24 ×10⁻⁶ cm/s. Also, the results for the half-life in data set [6] and in data set [7] were 1.6 h and 15.1 h, respectively.
For the molecule `COC(=O)c1c(F)cccc1-c1ccc(CNC(=O)C2(NC(=O)C(F)(F)F)CC2)c(F)c1`, in [2], the Ratio was 4.1.
